Target: T1, Alpha-2C adrenergic receptor (Homo sapiens, UniProt P18825)
T1 sequence (P18825 whole entry): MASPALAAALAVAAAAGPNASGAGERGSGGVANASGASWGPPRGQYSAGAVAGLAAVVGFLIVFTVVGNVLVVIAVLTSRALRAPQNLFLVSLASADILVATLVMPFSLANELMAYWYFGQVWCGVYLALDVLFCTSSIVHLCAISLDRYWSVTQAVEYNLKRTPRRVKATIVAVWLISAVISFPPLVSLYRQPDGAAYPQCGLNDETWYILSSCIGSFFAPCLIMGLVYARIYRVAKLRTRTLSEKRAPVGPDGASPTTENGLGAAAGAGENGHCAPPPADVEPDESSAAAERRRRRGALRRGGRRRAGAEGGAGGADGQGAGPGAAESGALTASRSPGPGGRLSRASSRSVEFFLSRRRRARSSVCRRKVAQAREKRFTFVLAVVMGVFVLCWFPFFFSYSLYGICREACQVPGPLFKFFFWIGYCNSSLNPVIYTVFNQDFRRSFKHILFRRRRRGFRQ
Test: In Vitro Assay
Protocol: Antagonism against the adrenoreceptor α1A was tested using a recombinant human α1A receptor CHO cell line which additionally also recombinantly expresses mtAeq (mitochondrial aequorin). Antagonism against the adrenoreceptor α2A was tested using a recombinant human α2A-Gα16 receptor fusion protein CHO cell line (PerkinElmer Life Sciences) which additionally also recombinantly expresses mtAeq. Antagonism against the adrenoreceptor α2B was tested using a recombinant human α2B receptor CHO cell line (PerkinElmer Life Sciences) which additionally also recombinantly expresses mtAeq. Antagonism against the adrenoreceptor α2C was tested using a recombinant human α2C receptor CHO cell line which additionally also recombinantly expresses a chimaric G protein (Gαqi3) and mtOb (mitochondrial obelin).The cells were cultivated at 37° C. and 5% CO2 in Dulbecco's modified Eagle's Medium/NUT mix F12 with L-glutamine which additionally contains 10% (v/v) inactivated foetal calf serum, 1 mM sodium pyruvate, 0.9 mM sodium bicarbonate, 50 U/ml penicillin, 50 μg/ml streptomycin, 2.5 μg/ml amphotericin B and 1 mg/ml Geneticin. The cells were passaged with enzyme-free Hank's-based cell dissociation buffer. All cell culture reagents used were from Invitrogen (Carlsbad, USA).

O=C(c1ccc(N2CC3(COC3)C2)nc1)N1CCC(N2CCc3ccccc3C2)CC1 [US9624198, 10]
IC50: 11 nM
